The values that follow come from patent publication US6310243A, “Iodinated x-ray contrast media” (Nycomed Imaging AS, priority 1994, dated 2001).

Format in all cases: physicochemical
Data set [1] in a line: Viscosity in aqueous solution at 20° C. On the procedure:
Table 2 also gives calculated value for viscosity in mPas for concentration of 400 mg I/ml and 300 mg I/ml (at 20° C.).

Another data set can be described thus: Water solubility. Particulars: noted in Table 2 in place of a concentration.
The nature of another data set: Viscosity at 37° C.

As for `CC(O)C(=O)Nc1c(I)c(CO)c(I)c(N(CC(O)CO)C(=O)C(C)O)c1I` (stereo not shown) [Example 11, N,N'-Bis(2-hydroxypropionyl)-N-(2,3-dihydroxypropyl)-3,5-diamino-2,4,6-triiodobenzylalcohol], the “Viscosity 20° C.” value in data set [1] (407 mgI/ml) stood at 16 mPas.

As for `O=C(Nc1c(I)c(CO)c(I)c(N(CC(O)CO)C(=O)C(O)CO)c1I)C(O)CO` (stereo not shown) [Example 15, N,N'-Bis(2,3-dihydroxypropionyl)-N-(2,3-dihydroxyoronyl)-3,5-diamino-2,4,6-triiodobenzylalcohol], the figures for the “Viscosity 20° C.” value in data set [1] (348 mgI/ml), in data set [1] (446 mgI/ml) and in data set [1] (537 mgI/ml) were 7.8 mPas, 22 mPas and 75 mPas, respectively.

Turning to `CN(CC(O)CO)C(=O)c1c(I)c(CO)c(I)c(NC(=O)CO)c1I` (stereo not shown) [Example 44, 5-Hydroxyacetamido-3-hydroxymethyl-N-methyl-N-(2,3-dihydroxypropyl)-2,4,6-triiodobenzamide], the “Viscosity at 400 mgI/ml (CALCULATED)” value in data set [1] (400 mgI/ml, calculated) is given as 10.8 mPas. Also, in data set [1] (481 mgI/ml), the “Viscosity 20° C.” value stood at 24 mPas.

Take `OCc1cc(OCC(O)CO)c(I)c(OCC(O)CO)c1I` (stereo not shown) [Example 78, 3,5-Bis-(2,3-dihydroxypropyloxy)-2,4-diiodobenzyl alcohol]: in “Water solubility”, the solubility entry is reported as “low”.

As for `O=C(Nc1c(I)c(CO)c(I)c(NC(=O)C(O)C(O)CO)c1I)C(O)C(O)CO` (stereo not shown) [Example 79, N,N'-Bis-(2,3,4-trihydroxybutanoyl)-3,5-diamino-2,4,6-triiodobenzyl alcohol], the “Viscosity at 350 mgI/ml (CALCULATED)” value in “Viscosity at 37° C.” is 5.9. For the same compound, the “Viscosity 37° C.” value in “Viscosity at 37° C.” (379 mgI/ml) is reported as 6.9.

`O=C(NCC(O)CO)c1c(I)c(CO)c(I)c(NC(=O)C(O)C(O)CO)c1I` (stereo not shown) [Example 80, 5-[N'-(2,3,4-Trihydroxybutanoyl)amino]-3-hydroxymethyl-N-(2,3-dihydroxypropyl)-2,4,6-triiodobenzamide]: the “Viscosity at 350 mgI/ml (CALCULATED)” value in “Viscosity at 37° C.” is reported as 5.2. For the same compound, in the data set “Viscosity at 37° C.” (444 mgI/ml), the “Viscosity 37° C.” value is 11.

For the compound `O=C(NC(CO)C(O)CO)c1c(I)c(CO)c(I)c(NC(=O)C(O)C(O)CO)c1I` (stereo not shown) [Example 81, 5-[N'-(2,3,4-Trihydroxybutanoyl)-amino]-3-hydroxymethyl-N-(1,3,4-trihydroxybut-2-yl)-2,4,6-triiodobenzamide], the “Viscosity at 350 mgI/ml (CALCULATED)” value in the data set “Viscosity at 37° C.” was 6.1. In the data set “Viscosity at 37° C.” (376 mgI/ml), the “Viscosity 37° C.” value was 8.9.
